In patent publication US10159640B2, “Prebiotic oral care compositions containing amino acids” (COLGATE-PALMOLIVE COMPANY, priority 2013, dated 2018):

System: beneficial oral bacteria and pathogenic oral bacteria
Experiment: Biofilm growth, whole panel: prebiotic effect
Type: cell-based
Conditions: threshold value of 1.6
Experimental: Substrates that were able to increase the biofilm mass of at least one of the above beneficial bacteria while not or only minimally increasing the biofilm mass of the pathogenic bacteria are considered to be prebiotic compounds.
The increase in biofilm formation of the tested bacteria in response to selected compounds (Met-Pro, Phe-Glu) was investigated by setting up biofilm growth assays in a nutritionally rich medium (brain heart infusion broth (BHI), Oxoid), over 48 hours. Late exponential growth phase liquid cultures were prepared by transferring the respective bacterium from blood agar plates to BHI and overnight incubation at 37° C. in an anaerobic atmosphere for A. viscosus, V. parvula, F. nucleatum, P. gingivalis, P. intermedia, T. forsythia, A. naeslundii, and C. sputigena, and in a 5% CO2 environment for S. salivarius, S. sanguinis, S. mitis, A. actinomycetemcomitans, S. mutans, and S. gordonii. Overnight cultures were transferred to BHI and adjusted to a concentration of 1×10^7 CFU/ml by measuring the optical density at 600 nm (OD600) (BioRad SmartSpec 3000). For each strain, 200 μl of the bacterial suspension was added to a 96-well plate containing 20 μl of the respective di-peptides. Final concentrations of the di-peptides were set to 5, 10, 20 and 25 μmol/ml. […] Additionally, for each bacterium tested, a background control, to correct for background staining, was added. This background control contained the bacterium tested and 0.03 weight % chlorhexidine, as an antiseptic. Plates were incubated as previously described. After 48 hrs the supernatant was removed from the wells of the plates. The wells were washed twice with 1×100 μL PBS (phosphate buffered saline), fixed for 20 minutes with 96% vol. ethanol (96% vol. solution in water) and the biofilm retained at the bottom of the wells was stained with 1 weight % crystal violet (1 weight % solution in water). The bound dye was dissolved with 5% vol. acetic acid (5% vol. solution in water). Quantification of the stained biofilm was performed by measuring the absorbance at 630 nm using a Multiskan Ascent microplate reader (Thermo Scientific).
The experiment was carried out on three different days (thus providing 3 biological replicas) and each day the experiment was carried out in quadruple (thus providing 4 technical replicas) for each combination of bacterium with dipeptide and for each control. For each day and for each combination, the average (mean) of the values obtained (as detailed above) for the four technical replicas was calculated to provide a single value for each combination on each day. The values shown in Tables 7 to 8, below, are the average (mean) of the three single values obtained for each combination of bacterium with dipeptide.
This value was selected in order to exclude low-stimulating metabolites and avoid false positive results.

Substance	prebiotic effects (biofilm growth) (10 μmol/ml)	prebiotic effects (biofilm growth) (20 μmol/ml)	prebiotic effects (biofilm growth) (25 μmol/ml)	prebiotic effects (biofilm growth) (5 μmol/ml)
Met-Pro	exhibited prebiotic effects	exhibited prebiotic effects	exhibited prebiotic effects	–
Phe-Glu	exhibited prebiotic effects	–	–	exhibited prebiotic effects
